# Measured values from patent US20120029187A1, “HALOALKYLSULFONANILIDE DERIVATIVE” (Nissan Chemical Industries, Ltd., priority 2009, published 2012).
# Columns and labels:
# Format in all cases: in vivo
# barnyardgrass [1] = experiment: Test Example 1: herbicidal effects in preemergence treatment under submerged conditions; settings: dose 2.52 g/a
# Excerpt: (§1) Test on the Herbicidal Effects in Preemergence Treatment on Weeds Under Submerged Conditions
# (§2) Alluvial soil was put in 1/30000-are styrol cups and admixed with water so that it was submerged at a depth of 4 cm. In each cup, seeds of barnyardgrass, bulrush and ducksalad were sown together, and rice seedlings at the 2.5-leaf stage were transplanted. On the same day as the seeding, emulsifiable concentrates containing compounds of the present invention formulated in accordance with Formulation Example 2 were applied to the water surfaces at predetermined doses after diluted with water. The cups were placed in a greenhouse at 25 to 30° C. to grow the plants. Three weeks after the application, the herbicidal effects against various plants were determined on the following evaluation scale.
# (§3) 5 mortality of 90% or above (nearly complete death)
# (§4) 4 mortality of at least 70% and less than 90%
# (§5) 3 mortality of at least 40% and less than 70%
# (§6) 2 mortality of at least 20% and less than 40%
# (§7) 1 mortality of at least 5% and less than 20%
# (§8) 0 mortality of less than 5% (almost ineffective)
# (§9) A: barnyardgrass, B: bulrush, C: ducksalad, D: large crabgrass, E: giant foxtail, F: wild oat, G: water foxtail, H: Italian ryegrass, I: velvetleaf, J: common ragweed, K: redroot pigweed, L: common lambsquater, M: posumbu knotweed, N: common chickweed, O: beadstraw, a: transplanted rice, b: corn, c: soybean, d: direct-seeded rice, e: wheat, f: sugar beet.
# (§10) The doses (g/a) represents the amounts in g per 1 are (a) applied after adjustment of concentration adjustment.
# bulrush [2] = experiment: as above; settings: dose 2.52 g/a
# Excerpt: as §1, §2, §3, §4, §5, §6, §7, §8, §9, §10
# ducksalad [3] = experiment: as above; settings: dose 2.52 g/a
# Excerpt: as §1, §2, §3, §4, §5, §6, §7, §8, §9, §10
# transplanted rice = experiment: Test Example 1: preemergence treatment under submerged conditions, effect on crop; settings: dose 2.52 g/a
# Excerpt: as §1, §2, §3, §4, §5, §6, §7, §8, §9, §10
# barnyardgrass [4] = experiment: Test Example 2: herbicidal effects during the vegetation period under submerged conditions; settings: treatment during the vegetation period under submerged conditions; dose 2.52 g/a
# Experimental: (§11) Test on the Herbicidal Effects on Weeds During the Vegetation Period Under Submerged Conditions
# (§12) Alluvial soil was put in 1/30000-are styrol cups and admixed with water so that it was submerged at a depth of 4 cm. In each cup, seeds of barnyardgrass, bulrush and ducksalad were sown together, and the cups were placed in a greenhouse at 25 to 30° C. to grow the plants. When the barnyardgrass, bulrush and ducksalad reached the 1- or 2-leaf stage, emulsifiable concentrates containing compounds of the present invention formulated in accordance with Formulation Example 2 were applied to the water surfaces at predetermined doses after diluted with water. Three weeks after the application, the herbicidal effects against various plants were determined on the same evaluation scale as in Test Example 1.
# as §9, §10
# bulrush [5] = experiment: as above; settings: treatment during the vegetation period under submerged conditions; dose 2.52 g/a
# Experimental: as §11, §12, §9, §10
# ducksalad [6] = experiment: as above; settings: treatment during the vegetation period under submerged conditions; dose 2.52 g/a
# Experimental: as §11, §12, §9, §10
# Italian ryegrass [7] = experiment: Test Example 3: herbicidal effects in soil treatment; settings: dose 3.2 g/a
# Excerpt: (§13) Test on the Herbicidal Effects in Soil Treatment
# (§14) Sterilized diluvial soil was put in plastic boxes with a length of 21 cm, a width of 13 cm and a depth of 7 cm, and seeds of barnyardgrass, large crabgrass, giant foxtail, wild oat, blackgrass, velvetleaf, common ragweed, redroot pigweed, common lambsquater, posumbu knotweed, common chickweed corn, soybean, rice, wheat and sugar beet were sown in spots and covered with an about 1.5 cm-thick soil layer. Emulsifiable concentrates containing compounds of the present invention formulated in accordance with Formulation Example 2 were uniformly applied to the soil surfaces at predetermined doses through a small sprayer after dilute with water. Three weeks after the application, the herbicidal effects against various plants were determined on the same evaluation scale as in Test Example 1.
# as §9, §10
# barnyardgrass [8] = experiment: as above; settings: dose 3.2 g/a
# Excerpt: as §13, §14, §9, §10
# common chickweed [9] = experiment: as above; settings: dose 3.2 g/a
# Excerpt: as §13, §14, §9, §10
# common lambsquater [10] = experiment: as above; settings: dose 3.2 g/a
# Excerpt: as §13, §14, §9, §10
# common ragweed [11] = experiment: as above; settings: dose 3.2 g/a
# Excerpt: as §13, §14, §9, §10
# giant foxtail [12] = experiment: as above; settings: dose 3.2 g/a
# Excerpt: as §13, §14, §9, §10
# large crabgrass [13] = experiment: as above; settings: dose 3.2 g/a
# Excerpt: as §13, §14, §9, §10
# posumbu knotweed [14] = experiment: as above; settings: dose 3.2 g/a
# Excerpt: as §13, §14, §9, §10
# redroot pigweed [15] = experiment: as above; settings: dose 3.2 g/a
# Excerpt: as §13, §14, §9, §10
# water foxtail [16] = experiment: as above; settings: dose 3.2 g/a
# Excerpt: as §13, §14, §9, §10
# Italian ryegrass [17] = experiment: Test Example 4: herbicidal effect in foliage treatment; settings: dose 3.2 g/a, three weeks after the application
# Excerpt: (§15) Test on the Herbicidal Effect in Foliage Treatment
# as §14, with “chickweed,” for “chickweed”, “The boxes were placed in a greenhouse at 25 to 30° C. to grow the plants. After 14 days, emulsifiable” for “Emulsifiable”, “foliage” for “soil surfaces”, “diluted” for “dilute”
# as §9, §10
# barnyardgrass [18] = experiment: as above; settings: dose 3.2 g/a, three weeks after the application
# Excerpt: as §15
# as §14, with “chickweed,” for “chickweed”, “The boxes were placed in a greenhouse at 25 to 30° C. to grow the plants. After 14 days, emulsifiable” for “Emulsifiable”, “foliage” for “soil surfaces”, “diluted” for “dilute”
# as §9, §10
# beadstraw = experiment: as above; settings: dose 3.2 g/a, three weeks after the application
# Excerpt: as §15
# as §14, with “chickweed,” for “chickweed”, “The boxes were placed in a greenhouse at 25 to 30° C. to grow the plants. After 14 days, emulsifiable” for “Emulsifiable”, “foliage” for “soil surfaces”, “diluted” for “dilute”
# as §9, §10
# common chickweed [19] = experiment: as above; settings: dose 3.2 g/a, three weeks after the application
# Excerpt: as §15
# as §14, with “chickweed,” for “chickweed”, “The boxes were placed in a greenhouse at 25 to 30° C. to grow the plants. After 14 days, emulsifiable” for “Emulsifiable”, “foliage” for “soil surfaces”, “diluted” for “dilute”
# as §9, §10
# common lambsquater [20] = experiment: as above; settings: dose 3.2 g/a, three weeks after the application
# Excerpt: as §15
# as §14, with “chickweed,” for “chickweed”, “The boxes were placed in a greenhouse at 25 to 30° C. to grow the plants. After 14 days, emulsifiable” for “Emulsifiable”, “foliage” for “soil surfaces”, “diluted” for “dilute”
# as §9, §10
# common ragweed [21] = experiment: as above; settings: dose 3.2 g/a, three weeks after the application
# Excerpt: as §15
# as §14, with “chickweed,” for “chickweed”, “The boxes were placed in a greenhouse at 25 to 30° C. to grow the plants. After 14 days, emulsifiable” for “Emulsifiable”, “foliage” for “soil surfaces”, “diluted” for “dilute”
# as §9, §10
# giant foxtail [22] = experiment: as above; settings: dose 3.2 g/a, three weeks after the application
# Excerpt: as §15
# as §14, with “chickweed,” for “chickweed”, “The boxes were placed in a greenhouse at 25 to 30° C. to grow the plants. After 14 days, emulsifiable” for “Emulsifiable”, “foliage” for “soil surfaces”, “diluted” for “dilute”
# as §9, §10
# large crabgrass [23] = experiment: as above; settings: dose 3.2 g/a, three weeks after the application
# Excerpt: as §15
# as §14, with “chickweed,” for “chickweed”, “The boxes were placed in a greenhouse at 25 to 30° C. to grow the plants. After 14 days, emulsifiable” for “Emulsifiable”, “foliage” for “soil surfaces”, “diluted” for “dilute”
# as §9, §10
# posumbu knotweed [24] = experiment: as above; settings: dose 3.2 g/a, three weeks after the application
# Excerpt: as §15
# as §14, with “chickweed,” for “chickweed”, “The boxes were placed in a greenhouse at 25 to 30° C. to grow the plants. After 14 days, emulsifiable” for “Emulsifiable”, “foliage” for “soil surfaces”, “diluted” for “dilute”
# as §9, §10
# redroot pigweed [25] = experiment: as above; settings: dose 3.2 g/a, three weeks after the application
# Excerpt: as §15
# as §14, with “chickweed,” for “chickweed”, “The boxes were placed in a greenhouse at 25 to 30° C. to grow the plants. After 14 days, emulsifiable” for “Emulsifiable”, “foliage” for “soil surfaces”, “diluted” for “dilute”
# as §9, §10
# velvetleaf = experiment: as above; settings: dose 3.2 g/a, three weeks after the application
# Excerpt: as §15
# as §14, with “chickweed,” for “chickweed”, “The boxes were placed in a greenhouse at 25 to 30° C. to grow the plants. After 14 days, emulsifiable” for “Emulsifiable”, “foliage” for “soil surfaces”, “diluted” for “dilute”
# as §9, §10
# water foxtail [26] = experiment: as above; settings: dose 3.2 g/a, three weeks after the application
# Excerpt: as §15
# as §14, with “chickweed,” for “chickweed”, “The boxes were placed in a greenhouse at 25 to 30° C. to grow the plants. After 14 days, emulsifiable” for “Emulsifiable”, “foliage” for “soil surfaces”, “diluted” for “dilute”
# as §9, §10
structure (smiles),measurement,setting,value
CC1(C)CON(Cc2ccccc2NS(=O)(=O)C(F)(F)F)C(=O)O1 [III-10],"A: barnyardgrass, herbicidal effect (evaluation scale 0-5)",barnyardgrass [1],5 (mortality of 90% or above (nearly complete death))
same,"B: bulrush, herbicidal effect (evaluation scale 0-5)",bulrush [2],5 (mortality of 90% or above (nearly complete death))
same,"C: ducksalad, herbicidal effect (evaluation scale 0-5)",ducksalad [3],5 (mortality of 90% or above (nearly complete death))
same,"a: transplanted rice, effect on crop (evaluation scale 0-5)",transplanted rice,0 (mortality of less than 5% (almost ineffective))
same,"A: barnyardgrass, herbicidal effect (evaluation scale 0-5)",barnyardgrass [4],5 (mortality of 90% or above (nearly complete death))
same,"B: bulrush, herbicidal effect (evaluation scale 0-5)",bulrush [5],5 (mortality of 90% or above (nearly complete death))
same,"C: ducksalad, herbicidal effect (evaluation scale 0-5)",ducksalad [6],5 (mortality of 90% or above (nearly complete death))
same,"herbicidal effect, H: Italian ryegrass",Italian ryegrass [7],4 (mortality of at least 70% and less than 90%)
same,"herbicidal effect, A: barnyardgrass",barnyardgrass [8],5 (mortality of 90% or above (nearly complete death))
same,"herbicidal effect, N: common chickweed",common chickweed [9],4 (mortality of at least 70% and less than 90%)
same,"herbicidal effect, L: common lambsquater",common lambsquater [10],4 (mortality of at least 70% and less than 90%)
same,"herbicidal effect, J: common ragweed",common ragweed [11],5 (mortality of 90% or above (nearly complete death))
same,"herbicidal effect, E: giant foxtail",giant foxtail [12],4 (mortality of at least 70% and less than 90%)
same,"herbicidal effect, D: large crabgrass",large crabgrass [13],5 (mortality of 90% or above (nearly complete death))
same,"herbicidal effect, M: posumbu knotweed",posumbu knotweed [14],5 (mortality of 90% or above (nearly complete death))
same,"herbicidal effect, K: redroot pigweed",redroot pigweed [15],2 (mortality of at least 20% and less than 40%)
same,"herbicidal effect, G: water foxtail",water foxtail [16],5 (mortality of 90% or above (nearly complete death))
same,"H: Italian ryegrass, herbicidal effect",Italian ryegrass [17],4 (mortality of at least 70% and less than 90%)
same,"A: barnyardgrass, herbicidal effect",barnyardgrass [18],5 (mortality of 90% or above (nearly complete death))
same,"O: beadstraw, herbicidal effect",beadstraw,5 (mortality of 90% or above (nearly complete death))
same,"N: common chickweed, herbicidal effect",common chickweed [19],1 (mortality of at least 5% and less than 20%)
same,"L: common lambsquater, herbicidal effect",common lambsquater [20],4 (mortality of at least 70% and less than 90%)
same,"J: common ragweed, herbicidal effect",common ragweed [21],5 (mortality of 90% or above (nearly complete death))
same,"E: giant foxtail, herbicidal effect",giant foxtail [22],1 (mortality of at least 5% and less than 20%)
same,"D: large crabgrass, herbicidal effect",large crabgrass [23],4 (mortality of at least 70% and less than 90%)
same,"M: posumbu knotweed, herbicidal effect",posumbu knotweed [24],5 (mortality of 90% or above (nearly complete death))
same,"K: redroot pigweed, herbicidal effect",redroot pigweed [25],4 (mortality of at least 70% and less than 90%)
same,"I: velvetleaf, herbicidal effect",velvetleaf,3 (mortality of at least 40% and less than 70%)
same,"G: water foxtail, herbicidal effect",water foxtail [26],5 (mortality of 90% or above (nearly complete death))
